What was measured:
[1] = biological target: human activated kallikrein enzyme (Homo sapiens, UniProt P03952); experiment: Plasma kallikrein inhibition, fluorogenic PFR-AMC substrate, 500 pM activated kallikrein format; type: biochemical; settings: 500 pM activated kallikrein, 300 uM PFR-AMC, 30 min preincubation, 10 min reaction; read-out: Primary Dose Response Assay: Average EC50
In short: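 Enzyme at 500 pM preincubated 30 min RT with inhibitors in 20 mM Tris pH 7.5, 1 mM EDTA, 150 mM NaCl, 0.1% PEG-400, 0.1% Triton X-100. Reaction started with 300 uM PFR-AMC, run 10 min RT; fluorescence read at 460 nm emission, 380 nm excitation. EC50 reported in ranges.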

plasma kallikrein = biological target: T1, plasma kallikrein (Homo sapiens, UniProt P03952); experiment: Neat human plasma assay, FXIIa contact pathway-activated, PFR-AMC substrate; type: biochemical; settings: citrated human plasma 78% final, 10 nM human FXIIa, 100 μM PFR-AMC; read-out: Human Plasma Assay: IC90
T1 construct: from tissue
T1 sequence (P03952 391-638 limits assumed): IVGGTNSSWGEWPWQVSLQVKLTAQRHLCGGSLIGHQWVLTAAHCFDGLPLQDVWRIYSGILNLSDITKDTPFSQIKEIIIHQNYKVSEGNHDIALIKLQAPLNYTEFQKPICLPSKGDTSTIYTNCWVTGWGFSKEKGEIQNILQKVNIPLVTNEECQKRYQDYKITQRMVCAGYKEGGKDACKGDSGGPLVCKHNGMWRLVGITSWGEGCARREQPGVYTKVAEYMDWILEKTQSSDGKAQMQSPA
T1 sequence (P03952 20-390 partner limits assumed): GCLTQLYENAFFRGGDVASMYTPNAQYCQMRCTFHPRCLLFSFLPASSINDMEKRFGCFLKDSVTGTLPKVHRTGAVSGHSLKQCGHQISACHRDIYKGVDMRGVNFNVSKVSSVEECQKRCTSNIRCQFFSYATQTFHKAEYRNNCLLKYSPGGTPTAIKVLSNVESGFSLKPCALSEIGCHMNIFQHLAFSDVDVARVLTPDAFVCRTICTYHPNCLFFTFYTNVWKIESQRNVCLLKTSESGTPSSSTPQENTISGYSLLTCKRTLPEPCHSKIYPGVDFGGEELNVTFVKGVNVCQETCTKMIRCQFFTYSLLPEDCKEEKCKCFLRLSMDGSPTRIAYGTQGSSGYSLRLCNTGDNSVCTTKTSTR
In short: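 Citrated human plasma (78% final) with compound, contact-activated by 10 nM human FXIIa in pKal buffer pH 7.5, with 100 μM PFR-AMC. Fluorescence (360/480 nm) followed 5 min at room temperature; rates versus concentration fitted by 4-parameter equation for IC50/IC90.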

Sequence of human activated kallikrein enzyme (P03952 391-638 limits assumed): as the sequence (P03952 391-638 limits assumed) above
Sequence of human activated kallikrein enzyme (P03952 20-390 partner limits assumed): as the sequence (P03952 20-390 partner limits assumed) above

EC50 [1] [nM] | IC90 (plasma kallikrein) [nM] | SMILES
< 1 | 400 to 1500 | CN(C)C(=O)c1cc(C2CC2)cn2cc(CNc3cc(NC(=O)[C@H]4C[C@@H]4c4cccc(Cl)c4)ncn3)nc12 [Example 299, 2-(((6-((1S,2S)-2-(3-chlorophenyl)cyclopropane-1-carboxamido)pyrimidin-4-yl)amino)methyl)-6-cyclopropyl-N,N-dimethylimidazo[1,2-a]pyridine-8-carboxamide]
1 to 10 | 1500 to 10000 | O=C(Nc1cc(NCc2cn3cc(C4CC4)cc(N4CCNC(C(F)(F)F)C4)c3n2)ccn1)[C@H]1C[C@@H]1c1cccc(Cl)c1 (stereo partly drawn) [Example I-21, (1S,2S)-2-(3-chlorophenyl)-N-(4-(((6-cyclopropyl-8-(3-(trifluoromethyl)piperazin-1-yl)imidazo[1,2-a]pyridin-2-yl)methyl)amino)pyridin-2-yl)cyclopropane-1-carboxamide]
< 1 | 400 to 1500 | Cc1ccnc([C@H]2C[C@@H]2C(=O)Nc2nc(C3CC3)nc(N(C)Cc3cn4cc(C5CC5)cc(N5CC(=O)NC5=O)c4n3)n2)n1 (racemic) [Example 522, rac-(1S*,2S*)-N-(4-cyclopropyl-6-(((6-cyclopropyl-8-(2,4-dioxoimidazolidin-1-yl)imidazo[1,2-a]pyridin-2-yl)methyl)(methyl)amino)-1,3,5-triazin-2-yl)-2-(4-methylpyrimidin-2-yl)cyclopropane-1-carboxamide]
1 to 10 | 1500 to 10000 | O=C(Nc1cc(NCc2cn3cc(C4CC4)cc(N4CC(=O)N(C5CC5)C4=O)c3n2)ncn1)[C@H]1C[C@@H]1c1cccc(Cl)c1 [Example 399, (1S,2S)-2-(3-chlorophenyl)-N-(6-(((6-cyclopropyl-8-(3-cyclopropyl-2,4-dioxoimidazolidin-1-yl)imidazo[1,2-a]pyridin-2-yl)methyl)amino)pyrimidin-4-yl)cyclopropane-1-carboxamide]
< 1 | 400 to 1500 | O=C(Nc1cc(NCc2cn3cc(C4CC4)cc(N4CCN5CCC4C5)c3n2)ccn1)[C@H]1C[C@@H]1c1cccc(Cl)c1 (stereo partly drawn) [Example I-23, (1S,2S)-N-(4-(((8-(1,4-diazabicyclo[3.2.1]octan-4-yl)-6-cyclopropylimidazo[1,2-a]pyridin-2-yl)methyl)amino)pyridin-2-yl)-2-(3-chlorophenyl)cyclopropane-1-carboxamide]
< 1 | 400 to 1500 | CN1CCN(c2cc(C3CC3)cn3cc(CNc4ccnc(NC(=O)[C@@H]5C[C@H]5c5cc(Cl)ccc5C#N)c4)nc23)CC1 (racemic) [Example 143, rac-(1S*,2S*)-2-(5-chloro-2-cyanophenyl)-N-(4-(((6-cyclopropyl-8-(4-methylpiperazin-1-yl)imidazo[1,2-a]pyridin-2-yl)methyl)amino)pyridin-2-yl)cyclopropane-1-carboxamide]
< 1 | < 400 | Cc1ccnc([C@H]2C[C@@H]2C(=O)Nc2cc(OCc3cn4cc(C5CC5)cc(N5CC6(COC6)OC5=O)c4n3)nc(C)n2)n1 [Example 553, (1S,2S)-N-(6-((6-cyclopropyl-8-(6-oxo-2,5-dioxa-7-azaspiro[3.4]octan-7-yl)imidazo[1,2-a]pyridin-2-yl)methoxy)-2-methylpyrimidin-4-yl)-2-(4-methylpyrimidin-2-yl)cyclopropane-1-carboxamide]
< 1 | 10000 to 48000 | COc1ccc(C#N)c([C@H]2C[C@@H]2C(=O)Nc2cc(NCc3cn4cc(C5CC5)ccc4n3)ccn2)c1 (single isomer, unassigned) [Example I-224, rac-(1S*,2S*)-2-(2-cyano-5-methoxyphenyl)-N-(4-(((6-cyclopropylimidazo[1,2-a]pyridin-2-yl)methyl)amino)pyridin-2-yl)cyclopropane-1-carboxamide]
< 1 | 1500 to 10000 | Cc1ccnc([C@H]2C[C@@H]2C(=O)Nc2cc(NCc3cn4cc(C5CC5)cc(N5CC6CC6C5=O)c4n3)ncn2)n1 (relative stereo) [Example 317, rac-(1S*,2S*)—N-(6-(((6-cyclopropyl-8-(2-oxo-3-azabicyclo[3.1.0]hexan-3-yl)imidazo[1,2-a]pyridin-2-yl)methyl)amino)pyrimidin-4-yl)-2-(4-methylpyrimidin-2-yl)cyclopropane-1-carboxamide]
< 1 | 400 to 1500 | Cc1ccnc([C@H]2C[C@@H]2C(=O)Nc2cc(N3C[C@@H](O)C[C@@H]3c3cn4cc(C5CC5)cc(N5CC(=O)N(C)C5=O)c4n3)ncn2)n1 (relative stereo) [Example 473, rac-(1S*,2S*)-N-(6-((2R,4S)-2-(6-cyclopropyl-8-(3-methyl-2,4-dioxoimidazolidin-1-yl)imidazo[1,2-a]pyridin-2-yl)-4-hydroxypyrrolidin-1-yl)pyrimidin-4-yl)-2-(4-methylpyrimidin-2-yl)cyclopropane-1-carboxamide]
1 to 10 | 400 to 1500 | COCC(Nc1cc(NC(=O)[C@H]2C[C@@H]2c2nccc(C)n2)ncn1)c1cn2cc(C3CC3)cc(N3CC(=O)N(C)C3=O)c2n1 (stereo partly drawn) [Example 373, (1S,2S)-N-(6-((1-(6-cyclopropyl-8-(3-methyl-2,4-dioxoimidazolidin-1-yl)imidazo[1,2-a]pyridin-2-yl)-2-methoxyethyl)amino)pyrimidin-4-yl)-2-(4-methylpyrimidin-2-yl)cyclopropane-1-carboxamide]
< 1 | 400 to 1500 | Cc1ccnc([C@H]2C[C@@H]2C(=O)Nc2cc(OCc3cn4cc(C5CC5)cc(N5CC(=O)N(C)C5=O)c4n3)nc(C)n2)n1 [Example 555, (1S,2S)-N-(6-((6-cyclopropyl-8-(3-methyl-2,4-dioxoimidazolidin-1-yl)imidazo[1,2-a]pyridin-2-yl)methoxy)-2-methylpyrimidin-4-yl)-2-(4-methylpyrimidin-2-yl)cyclopropane-1-carboxamide]
1 to 10 | 1500 to 10000 | CN1CN(c2cc(C3CC3)cn3cc(CNc4cc(NC(=O)[C@H]5C[C@@H]5c5cccc(Cl)c5)ncn4)nc23)CC1=O [Example I-9, (1S,2S)-2-(3-chlorophenyl)-N-(6-(((6-cyclopropyl-8-(3-methyl-4-oxoimidazolidin-1-yl)imidazo[1,2-a]pyridin-2-yl)methyl)amino)pyrimidin-4-yl)cyclopropane-1-carboxamide]
< 1 | 1500 to 10000 | Cc1ccnc([C@H]2C[C@@H]2C(=O)Nc2cc(NC(C)c3cn4cc(Cl)cc(N5CC(=O)N(C)C5=O)c4n3)nc(C)n2)n1 (stereo partly drawn) [Example 356, (1S,2S)-N-(6-((1-(6-chloro-8-(3-methyl-2,4-dioxoimidazolidin-1-yl)imidazo[1,2-a]pyridin-2-yl)ethyl)amino)-2-methylpyrimidin-4-yl)-2-(4-methylpyrimidin-2-yl)cyclopropane-1-carboxamide]
< 1 | < 400 | Cc1ccnc([C@H]2C[C@@H]2C(=O)Nc2cc(N(C)Cc3cn4cc(C5CC5)cc(N5CC(=O)NC5=O)c4n3)ncn2)n1 [Example 375, (1S,2S)-N-(6-(((6-cyclopropyl-8-(2,4-dioxoimidazolidin-1-yl)imidazo[1,2-a]pyridin-2-yl)methyl)(methyl)amino)pyrimidin-4-yl)-2-(4-methylpyrimidin-2-yl)cyclopropane-1-carboxamide]
1 to 10 | 1500 to 10000 | O=C(Nc1cc(NCc2cn3cc(C4CC4)cc(N4CCS(=O)(=O)CC4)c3n2)ncn1)[C@H]1C[C@@H]1c1cccc(Cl)c1 [Example I-10, (1S,2S)-2-(3-chlorophenyl)-N-(6-(((6-cyclopropyl-8-(1,1-dioxidothiomorpholino)imidazo[1,2-a]pyridin-2-yl)methyl)amino)pyrimidin-4-yl)cyclopropane-1-carboxamide]
1 to 10 | 10000 to 48000 | CC(C)(O)c1cc(C2CC2)cn2cc(CNc3ccnc(NC(=O)[C@H]4C[C@@H]4c4cccc(Cl)c4)c3)nc12 [Example 122, (1S,2S)-2-(3-chlorophenyl)-N-(4-(((6-cyclopropyl-8-(2-hydroxypropan-2-yl)imidazo[1,2-a]pyridin-2-yl)methyl)amino)pyridin-2-yl)cyclopropane-1-carboxamide]
< 1 | 400 to 1500 | Cc1ccnc([C@H]2C[C@@H]2C(=O)Nc2cc(OCc3cn4cc(C5CC5)cc(N5CC(=O)N(CCO)C5=O)c4n3)ncn2)n1 (racemic) [Example 33, rac-(1S*,2S*)—N-(6-((6-cyclopropyl-8-(3-(2-hydroxyethyl)-2,4-dioxoimidazolidin-1-yl)imidazo[1,2-a]pyridin-2-yl)methoxy)pyrimidin-4-yl)-2-(4-methylpyrimidin-2-yl)cyclopropane-1-carboxamide]
< 1 | 400 to 1500 | O=C(Nc1cc(NCc2cn3cc(C4CC4)cc(N4CCCC4=O)c3n2)ccn1)[C@H]1C[C@@H]1c1cccc(Cl)c1 [Example 85, (1S,2S)-2-(3-chlorophenyl)-N-(4-(((6-cyclopropyl-8-(2-oxopyrrolidin-1-yl)imidazo[1,2-a]pyridin-2-yl)methyl)amino)pyridin-2-yl)cyclopropane-1-carboxamide]

SMILES | EC50 [1] [nM] | IC90 (plasma kallikrein) [nM]
CN1CCC(O)(c2cc(C3CC3)cn3cc(CNc4ccnc(NC(=O)[C@H]5C[C@@H]5c5cccc(Cl)c5)c4)nc23)CC1 [Example 488, (1S,2S)-2-(3-chlorophenyl)-N-(4-(((6-cyclopropyl-8-(4-hydroxy-1-methylpiperidin-4-yl)imidazo[1,2-a]pyridin-2-yl)methyl)amino)pyridin-2-yl)cyclopropane-1-carboxamide] | < 1 | 400 to 1500

— patent publication US20240228488A1 (TAKEDA PHARMACEUTICAL COMPANY LIMITED, priority 2021, published 2024)
